Experimental data from paper PMC12284513, “Unique structural features define the decarboxylation activity of a CYP152 fatty acid decarboxylase from Lacicoccus alkaliphilus” (The Journal of Biological Chemistry, 2025).

Columns and labels:
OleTJE L176I = assay: Fatty acid bioconversion with H2O2 as co-substrate (alkene by GC-MS, hydroxy products by HPLC-MS); assay type: biochemical, Jeotgalicoccus sp. 8456; conditions: for Decarboxylation activity of OleTJE L176I compared to that of OleTJE wild type: 200 μM substrate, 400 μM H2O2
Description: A reaction was typically quenched by adding 2-fold reaction volume of ethyl acetate which contained 30 μM of tetradecane as an internal standard. The reaction mixtures were vortexed for 1 min and then centrifuged at 12,000 rpm, 4 °C for 10 min to separate an organic and an aqueous phase. The organic phase was injected into an Agilent gas chromatography system (GC-MS) (Agilent 7890B equipped with Agilent 5977B MSD) equipped with a HP5-MS column (30 m × 0.25 mm × […]) (Agilent), and helium was used as a carrier gas. The oven conditions for C10FA and 1-nonene (C9 alkene) were ramped up from 60 to 240 °C with a rate of 19 ° C min^−1 and held at 240 °C for 1 min. […] For C18FA and 1-heptadecene (C17 alkene), the oven was ramped up from 60 to 250 °C with a rate of 22 °C min^−1 and hold at 250 °C for 4 min. For C20FA and 1-nonadecene (C19 alkene), the oven was ramped up from 100 to 250 °C with a rate of 23 °C min^−1 and held at 250 °C for 6 min. The response of target compounds was normalized with signals of the internal standard. The concentration of each compound was calculated based on a standard calibration curve.
For analyzing hydroxylated products of fatty acids, the reactions were quenched by adding an equal volume of acetonitrile, centrifuged, and filtrated. The analytes (10 μl) were injected into a liquid chromatography coupled with diode array and single quadrupole mass spectroscopy detection (LC-DAD/MS) (Agilent 1290 Infinity II LC System equipped with DAD, Single Quadrupole Mass Spectrometers system). A Zorbax eclipse plus C18 column (5 μm, 4.6 × 250 mm) (Agilent Technology) was used for separation. The mobile phase system A was water with 0.1% (v/v) formic acid, and system B was acetonitrile with 0.1% (v/v) formic acid.
All fatty acids were prepared in absolute EtOH at 20 mM as stock solutions. The reaction was carried out in 50 mM NaH2PO4 buffer with 300 mM NaCl, pH 7.5, with 2.5 or 10% (v/v) of EtOH, 200 μM of a substrate, and 400 μM of H2O2. The reactions were performed at 25 °C for 1 h, and then the alkene product was measured using GC-MS after the reactions were quenched and extracted with two-fold volume of ethyl acetate.
Site-directed mutagenesis of I178L of OleTLA and […] of OleTJE was done with overlaping PCR that used OleTLA or OleTJE plasmids as templates (Table S4). The PCR products were treated with DpnI in cut smart buffer at 37 °C for 16 h, transformed into E. coli XL−1 blue competent cells and grown at 37 °C on LB agar containing 50 μg/ml ampicillin. The plasmids of selected colonies were extracted for sequence verification. The plasmid containing the correct sequence was transformed into E. coli BL21 (DE3) for enzyme expression. The expression and purification methods of variants were the same as those of wild-type OleTLA and OleTJE.

[1] = system: Escherichia coli BL21 (DE3) cells co-transformed with pGro7, FdR/FdX system, and OleTLA or OleTJE; assay: In vivo bioconversion of C16FA with the FdR/FdX redox partner system; assay type: cell-based; conditions: 128.22 mg/L of C16FA added, cells overexpressing OleTLA and OleTJE
Description: The pRSFDuet−1 vector containing FdR/FdX and OleTLA or OleTJE was transformed into competent E. coli BL21 (DE3) containing a pGro7 plasmid. The transformed cells were incubated in LB broth at 37 °C, 220 rpm for 1.5 h, spread on LB agar with ampicillin (50 μg/ml), kanamycin (34 μg/ml), and chloramphenicol (20 μg/ml), and incubated at 37 °C for overnight. A single colony was inoculated into a starter culture in an auto-induction medium with appropriate antibiotics and 1% (w/v) of glucose. The culture was then incubated at 37 °C, 220 rpm overnight. Then, 1% (v/v) of the starter was inoculated into the auto-induction medium in the presence of ammonium iron (III) citrate (20 ug/ml), L-arabinose (2 mg/ml), ampicillin (50 μg/ml), kanamycin (34 μg/ml), and chloramphenicol (20 μg/ml), hemin (0.05 mM) and δ-ALA (0.5 mM) and then grown at 37 °C, 220 rpm until OD600 reached about 0.8 to 1.0. […] At a specific time point, the culture medium was sampled and extracted by adding two-fold ethyl acetate with tetradecane as an internal standard. The mixture was vortexed and centrifuged at 4 °C for 10 min. The organic phase was collected and injected into the GC-MS system.

[2] = Thermofluor assay of enzyme melting temperature; assay type: physicochemical; conditions: reductase enzymes of the redox partner systems (Fig. S16)
Description: The reactions containing 10 μM of enzyme, 25X of SYPRO Orange Protein Gel Stain solution in 25 μl of a storage buffer were carried out in a CFX96 Real-Time (Bio-Red) Thermal Cycle. The temperature of the experiments was raised from 30 to 80 °C at a continuous rate of 1 °C min^−1. The temperature at which half of the total amount of protein transitioned into an unfolded form is designated as the melting temperature.

CCCCCCCCCC(=O)O [C10FA, decanoic acid]
Decarboxylation activity of OleTJE L176I compared to that of OleTJE wild type (OleTJE L176I): less than 1%

CCCCCCCCCCCCCCCCCC(=O)O [C18FA, octadecanoic acid]
Decarboxylation activity of OleTJE L176I compared to that of OleTJE wild type (OleTJE L176I): less than 5%

CCCCCCCCCCCCCCCCCCCC(=O)O [C20FA, icosanoic acid]
Decarboxylation activity of OleTJE L176I compared to that of the wild-type enzyme (OleTJE L176I; 2.5% (v/v) EtOH): 37%
Decarboxylation activity of OleTJE L176I compared to that of the wild-type enzyme (OleTJE L176I; 10% (v/v) EtOH): 23%

C=CCCCCCCCCCCCCC [C15 alkene, 1-pentadecene]
C15 alkene produced ([1]; after 24 h): 0.42 mg/L
C15 alkene produced ([1]; after 48 h): around 1.26 mg/L

CCCCCCCCCCCC(=O)O [C12FA, dodecanoic acid]
Decarboxylation activity of OleTJE L176I compared to that of OleTJE wild type (OleTJE L176I): less than 1%

B1: FdR: ferredoxin reductase, redox partner, gene from Escherichia coli K-12 (protein, UniProt P28861 2-248, looked up)
Flavodoxin/ferredoxin--NADP …: ADWVTGKVTKVQNWTDALFSLTVHAPVLPFTAGQFTKLGLEIDGERVQRAYSYVNSPDNPDLEFYLVTVPDGKLSPRLAALKPGDEVQVVSEAAGFFVLDEVPHCETLWMLATGTAIGPYLSILQLGKDLDRFKNLVLVHAARYAADLSYLPLMQELEKRYEGKLRIQTVVSRETAAGSLTGRIPALIESGELESTIGLPMNKETSHVMLCGNPQMVRDTQQLLKETRQMTKHLRRRPGHMTAEHYW
Tm [2]: 60 °C

B2: CamA: putidaredoxin reductase, known redox partner, from Pseudomonas putida (protein, UniProt P16640 1-422, looked up)
Putidaredoxin reductase CamA: MNANDNVVIVGTGLAGVEVAFGLRASGWEGNIRLVGDATVIPHHLPPLSKAYLAGKATAESLYLRTPDAYAAQNIQLLGGTQVTAINRDRQQVILSDGRALDYDRLVLATGGRPRPLPVASGAVGKANNFRYLRTLEDAECIRRQLIADNRLVVIGGGYIGLEVAATAIKANMHVTLLDTAARVLERVTAPPVSAFYEHLHREAGVDIRTGTQVCGFEMSTDQQKVTAVLCEDGTRLPADLVIAGIGLIPNCELASAAGLQVDNGIVINEHMQTSDPLIMAVGDCARFHSQLYDRWVRIESVPNALEQARKIAAILCGKVPRDEAAPWFWSDQYEIGLKMVGLSEGYDRIIVRGSLAQPDFSVFYLQGDRVLAVDTVNRPVEFNQSKQIITDRLPVEPNLLGDESVPLKEIIAAAKAELSSA
Tm [2]: 50 °C
